Values belong to the compound of their own block, whether it stands above or below them. The source made the active and inactive calls. The calls are words filed in the database; no cut-off is given here.
Experiments:
[1] = biological target: T1, PAX3/FOXO1 (Homo sapiens) (UniProt Q12778+P23760); experiment: Inhibition of PAX3-FOXO1 driven transcriptional activity in human Rh4 cells assessed as upregulation of TNFRSF12A gene expression at 20 uM incubated for 6 hrs by GSEA analysis; assay type: cell-based
[2] = biological target: T1, PAX3/FOXO1 (Homo sapiens); experiment: Inhibition of PAX3-FOXO1 driven transcriptional activity in human Rh4 cells assessed as upregulation of IL-11 gene expression at 20 uM incubated for 6 hrs by GSEA analysis; assay type: cell-based
[3] = biological target: T1, PAX3/FOXO1 (Homo sapiens); experiment: Inhibition of PAX3-FOXO1 driven transcriptional activity in human Rh4 cells assessed as upregulation of SOX9 gene expression at 20 uM incubated for 6 hrs by GSEA analysis; assay type: cell-based
[4] = biological target: T1, PAX3/FOXO1 (Homo sapiens); experiment: Inhibition of PAX3-FOXO1 driven transcriptional activity in human Rh4 cells assessed as upregulation of TIMP3 gene expression at 20 uM incubated for 6 hrs by GSEA analysis; assay type: cell-based
[5] = biological target: T1, PAX3/FOXO1 (Homo sapiens); experiment: Inhibition of PAX3-FOXO1 driven transcriptional activity in human Rh4 cells assessed as upregulation of VEGFA gene expression at 20 uM incubated for 6 hrs by GSEA analysis; assay type: cell-based
[6] = biological target: T1, PAX3/FOXO1 (Homo sapiens); experiment: Inhibition of PAX3-FOXO1 driven transcriptional activity in human Rh4 cells assessed as upregulation of LBH gene expression at 20 uM incubated for 6 hrs by GSEA analysis; assay type: cell-based
[7] = biological target: T1, PAX3/FOXO1 (Homo sapiens); experiment: Inhibition of PAX3-FOXO1 driven transcriptional activity in human Rh4 cells assessed as upregulation of BCL2L1 gene expression at 20 uM incubated for 6 hrs by GSEA analysis; assay type: cell-based
[8] = biological target: T1, PAX3/FOXO1 (Homo sapiens); experiment: Inhibition of PAX3-FOXO1 driven transcriptional activity in human Rh4 cells assessed as upregulation of EPHA2 gene expression at 20 uM incubated for 6 hrs by GSEA analysis; assay type: cell-based
[9] = biological target: T1, PAX3/FOXO1 (Homo sapiens); experiment: Inhibition of PAX3-FOXO1 driven transcriptional activity in human Rh4 cells assessed as upregulation of GADD45B gene expression at 20 uM incubated for 6 hrs by GSEA analysis; assay type: cell-based
[10] = biological target: T1, PAX3/FOXO1 (Homo sapiens); experiment: Inhibition of PAX3-FOXO1 driven transcriptional activity in human Rh4 cells assessed as upregulation of KLF10 gene expression at 20 uM incubated for 6 hrs by GSEA analysis; assay type: cell-based
[11] = biological target: T1, PAX3/FOXO1 (Homo sapiens); experiment: Inhibition of PAX3-FOXO1 driven transcriptional activity in human Rh4 cells assessed as upregulation of DGKD gene expression at 20 uM incubated for 6 hrs by GSEA analysis; assay type: cell-based
[12] = biological target: T1, PAX3/FOXO1 (Homo sapiens); experiment: Inhibition of PAX3-FOXO1 driven transcriptional activity in human Rh4 cells assessed as upregulation of SERPINE1 gene expression at 20 uM incubated for 6 hrs by GSEA analysis; assay type: cell-based
[13] = biological target: T1, PAX3/FOXO1 (Homo sapiens); experiment: Inhibition of PAX3-FOXO1 driven transcriptional activity in human Rh4 cells assessed as upregulation of KIT gene expression at 20 uM incubated for 6 hrs by GSEA analysis; assay type: cell-based
PAX3/FOXO1 = PAX3/FOXO1 (Homo sapiens, UniProt P23760+Q12778); experiment: Inhibition of PAX3-FOXO1 driven transcriptional activity in human Rh4 cells transfected with ALK-Luc construct incubated for 24 hrs by luciferase assay; assay type: cell-based
[14] = biological target: T1, PAX3/FOXO1 (Homo sapiens); experiment: Inhibition of PAX3-FOXO1 driven transcriptional activity in human Rh4 cells assessed as upregulation of ID1 gene expression at 20 uM incubated for 6 hrs by GSEA analysis; assay type: cell-based
[15] = Cytotoxicity against human Rh4 cells transfected with CMV-Luc construct assessed as inhibition of cell growth at 100 uM by luciferase assay; assay type: toxicity, cell-based; conditions: rh4, 100 µM
Rh4 = experiment: Upregulation of TNF gene expression in human Rh4 cells; assay type: functional, cell-based

T1 sequence (P23760 whole entry, looked up): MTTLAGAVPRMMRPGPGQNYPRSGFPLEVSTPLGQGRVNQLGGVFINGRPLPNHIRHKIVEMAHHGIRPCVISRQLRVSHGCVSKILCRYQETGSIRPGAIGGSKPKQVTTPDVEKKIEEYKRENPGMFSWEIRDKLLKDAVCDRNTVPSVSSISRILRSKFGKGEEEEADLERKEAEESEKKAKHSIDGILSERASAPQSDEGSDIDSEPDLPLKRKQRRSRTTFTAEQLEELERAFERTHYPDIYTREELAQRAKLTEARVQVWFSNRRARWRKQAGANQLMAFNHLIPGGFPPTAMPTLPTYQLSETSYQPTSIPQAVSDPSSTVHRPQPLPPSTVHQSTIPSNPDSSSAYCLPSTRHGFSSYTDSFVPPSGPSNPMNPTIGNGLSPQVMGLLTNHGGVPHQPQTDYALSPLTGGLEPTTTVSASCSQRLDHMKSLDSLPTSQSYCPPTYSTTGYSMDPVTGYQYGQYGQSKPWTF
T1 sequence (Q12778 whole entry, looked up): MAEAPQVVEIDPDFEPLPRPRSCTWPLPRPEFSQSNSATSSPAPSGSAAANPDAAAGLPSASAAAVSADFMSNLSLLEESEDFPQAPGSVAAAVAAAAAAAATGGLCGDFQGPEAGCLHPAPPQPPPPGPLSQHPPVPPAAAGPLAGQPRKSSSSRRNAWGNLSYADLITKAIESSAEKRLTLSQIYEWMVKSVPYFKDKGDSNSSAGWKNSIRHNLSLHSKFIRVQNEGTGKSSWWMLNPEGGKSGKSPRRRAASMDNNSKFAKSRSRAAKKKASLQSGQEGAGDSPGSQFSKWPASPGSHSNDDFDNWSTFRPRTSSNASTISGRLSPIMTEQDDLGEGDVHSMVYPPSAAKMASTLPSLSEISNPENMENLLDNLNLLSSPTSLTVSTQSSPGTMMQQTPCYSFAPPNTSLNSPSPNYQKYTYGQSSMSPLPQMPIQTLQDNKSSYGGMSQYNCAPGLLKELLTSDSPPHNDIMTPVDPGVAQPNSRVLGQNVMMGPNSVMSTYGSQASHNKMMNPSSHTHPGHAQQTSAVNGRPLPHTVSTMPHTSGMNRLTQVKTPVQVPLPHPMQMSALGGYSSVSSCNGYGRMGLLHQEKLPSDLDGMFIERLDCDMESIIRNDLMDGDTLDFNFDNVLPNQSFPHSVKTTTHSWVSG
Sequence of PAX3/FOXO1 (Q12778 whole entry): as the sequence (Q12778 whole entry, looked up) above
Sequence of PAX3/FOXO1 (P23760 whole entry): as the sequence (P23760 whole entry, looked up) above

SMILES: CC[C@H](C)C(=O)Nc1nc2c([nH]1)C(C)c1[nH]c(NC(=O)c3ccccc3)nc1CC2 (stereo partly specified)
IC50 (PAX3/FOXO1): 26 µM
Activity [15]: Toxic

SMILES: CC[C@H](C)C(=O)Nc1nc2c([nH]1)C(C)c1[nH]c(NC(=O)/C=C/c3ccccc3)nc1CC2 (stereo partly specified)
IC50 (PAX3/FOXO1): 42 µM
Activity [15]: Toxic

SMILES: CC(C)C(=O)Nc1nc2c([nH]1)C(C)c1[nH]c(NC(=O)c3ccccc3)nc1CC2 (stereo unspecified)
IC50 (PAX3/FOXO1): 67 µM
Activity [15]: Toxic

Now those with a lower IC50 (PAX3/FOXO1), led by results:

inhibition [1]: Active
inhibition [2]: Active
inhibition [3]: Active
inhibition [4]: Active
inhibition [5]: Active
inhibition [6]: Active
inhibition [7]: Active
inhibition [8]: Active
inhibition [9]: Active
inhibition [10]: Active
inhibition [11]: Active
inhibition [12]: Active
inhibition [13]: Active
IC50 (PAX3/FOXO1): 17 µM
inhibition [14]: Active
SMILES: CC(C)=CC(=O)Nc1nc2c([nH]1)C(C)c1[nH]c(NC(=O)c3ccccc3)nc1CC2 (stereo unspecified)
Activity [15]: Toxic
Activity (Rh4): Active

IC50 (PAX3/FOXO1): 13 µM
SMILES: CC1c2[nH]c(NC(=O)c3ccccc3)nc2CCc2nc(NC(=O)c3ccccc3)[nH]c21
Activity [15]: Toxic
Activity (Rh4): Active
